From US20100305174A1, “Novel Heterocyclic Derivatives” (ORCHID RESEARCH LABORATORIES LIMITED, priority 2005, published 2010)
Like-named read-outs stand apart in the source and are kept apart here.

Legend:
[1] = test system: IL-1β; test: IL-1β inhibition in LPS-challenged human PBMC; format: cell-based; conditions: LPS 100 ng/mL, 20 hours
Description: (§1) Human PBMC cells were cultured and incubated with compounds listed in table-4 at 1 and 10 μM concentrations. Cells (1×10^6/mL) were challenged with lipopolysaccharides (LPS) at a concentration of (100 ng/mL) for 20 hours. Cell supernatant was analyzed for the presence of TNF-α, IL-1β and IL-6 cytokines by antibody directed enzyme-linked immunoassay.

[2] = test system: 3T3-L1 cells; test: Glucose uptake assay using 3T3-L1 cells; format: cell-based; conditions: 1 μM, 72 hours, differentiated 3T3-L1 adipocytes, 14C deoxyglucose uptake; relative to BLX-1002
Description: 3T3-L1 cells were differentiated by the addition of differentiation cocktail (72 μg/ml insulin, 0.5 mM IBMX, 400 ng/ml Dexamethasone) for 4 days and later fed with media without differentation cocktail for 7-8 days. After differentiation the cells were incubated with the either reference compound BLX-1002 or compounds listed in the table 1 at 1 μM concentrations for 72 hours and carried out the glucose uptake assay for 10 min by the addition of KRP buffer supplemented with 2.5 μCi/ml ^14C deoxy glucose. Stimulation Index is defined as the amount of ^14C Deoxyglucose uptake induced by 1 μM of BLX-1002 incubated for 72 hrs in an assay condition as per protocol described above with differentiated 3T3-L1 adipocytes. Values of compounds mentioned in table-1 are with reference to stimulation index of reference compound BLX-1002.

[3] = test system: TNF-α; test: TNF-α inhibition in LPS-challenged human PBMC; format: cell-based; conditions: LPS 100 ng/mL, 20 hours; for inhibition at 1 µM / inhibition at 10 µM: Homo sapiens, PBMC, read-out: % Inhibition TNF alpha
Description: as §1

[4] = test system: streptozotocin induced diabetic mice; test: Antidiabetic activity in streptozotocin induced diabetic mice; format: in vivo, Swiss albino mice; set-up: key to % Reduction Cholesterol / % Reduction Triglycerides / % Reduction Glucose: NR=No Reduction; conditions: 50 mg/kg oral, 7 days, plasma, compared to control group; for inhibition in vivo at 50 mg/kg: Mus musculus, 168 h
Description: Swiss albino mice of either sex were used in the study at the age of 10 weeks. Diabetes was induced in animals by injecting streptozotocin by i.p. route at a dose of 200 mg/kg body weight. 48 hours after streptozotocin administration, the animals were kept for fasting for 6 hours and blood was collected and plasma separated and glucose was estimated. Animals showing greater than 200 mg/dl glucose levels were considered as diabetic and these animals were randomly distributed into various groups. The compounds listed in the table 3 were administered at a dose of 50 mg/kg body weight by oral route for 7 days. Later animals were fasted for 6 hours and blood was collected and plasma separated. Biochemical estimations like glucose, cholesterol and triglycerides were carried out using the plasma. The effect of compounds mentioned in the table was expressed in terms of percentage reduction in biochemical values as compared to control group.

[5] = biological target: T1, DPP IV (Homo sapiens, UniProt P27487); test: DPP IV assay (human plasma as source, H-gly-pro AMC substrate); format: biochemical; conditions: compared to vehicle control
T1 construct: using human plasma as a source of DPP IV; from tissue; host or cells: human plasma
Description: DPP IV assay is carried by using human plasma as a source of DPP IV. The compounds were incubated at a concentration of 1 and 10 μM in assay buffer containing DPP IV enzyme. The compounds were incubated for 1 hr and then the substrate H-gly-pro AMC was added and further incubated for 20 min and then the reaction was stopped on addition of 25% glacial acetic acid. The plates were read in a spectrofluorimeter to get RFU on setting excitation wavelength of 360 nm and emission wavelength of 460 nm. Percentage inhibition is calculated as compared to vehicle control.

[6] = test system: IL-6; test: IL-6 inhibition in LPS-challenged human PBMC; format: cell-based; conditions: Homo sapiens, PBMC, LPS 100 ng/mL, 20 hours
Description: as §1

[7] = read-out: % Reduction Triglycerides
[8] = Homo sapiens, PBMC, 1 μM, read-out: % Inhibition IL1beta

T1 sequence (P27487 39-766 limits assumed): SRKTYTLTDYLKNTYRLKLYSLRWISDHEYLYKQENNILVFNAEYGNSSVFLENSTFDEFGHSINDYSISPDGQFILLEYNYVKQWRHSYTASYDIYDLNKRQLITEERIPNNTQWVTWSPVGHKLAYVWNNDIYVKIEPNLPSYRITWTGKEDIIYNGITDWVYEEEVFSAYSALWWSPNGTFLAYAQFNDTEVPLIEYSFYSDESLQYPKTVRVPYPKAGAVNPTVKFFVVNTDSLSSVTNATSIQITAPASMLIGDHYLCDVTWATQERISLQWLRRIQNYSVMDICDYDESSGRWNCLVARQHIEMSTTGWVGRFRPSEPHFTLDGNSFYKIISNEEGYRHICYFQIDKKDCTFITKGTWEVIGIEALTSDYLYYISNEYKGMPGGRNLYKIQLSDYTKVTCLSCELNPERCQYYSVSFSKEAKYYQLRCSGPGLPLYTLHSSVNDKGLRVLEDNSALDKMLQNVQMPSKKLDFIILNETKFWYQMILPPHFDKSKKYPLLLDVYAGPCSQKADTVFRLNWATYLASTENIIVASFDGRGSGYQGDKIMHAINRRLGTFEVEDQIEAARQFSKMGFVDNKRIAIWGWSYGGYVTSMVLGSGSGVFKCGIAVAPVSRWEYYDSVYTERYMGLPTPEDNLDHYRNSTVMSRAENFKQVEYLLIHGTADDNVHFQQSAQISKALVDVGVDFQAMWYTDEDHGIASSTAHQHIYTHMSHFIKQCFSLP

For “5-(3-methoxy-4-{4-[(3-methyl-2-oxo-1,3-oxazolidin-4-yl)methyl]phenoxybenzylidene)-1,3-dihydro-2H-indol-2-one [Example 11]”, the “% Inhibition IL1beta” value ([1]; 1 μM) was 17.10%, the “Stimulation Index” value [2] was 1.12 and the “% Inhibition TNF alpha” value ([3]; 1 μM) was 18.77%. For the same compound, the “% Inhibition TNF alpha” value ([3]; 10 μM) was 26.07%.

In the case of CCN1C(=O)OCC1Cc1ccc(Oc2ccc(/C=C3/SC(=O)NC3=O)cc2)cc1 (stereo not shown) [Example 3, 5-(4-{4-[(3-ethyl-2-oxo-1,3-oxazolidin-4-yl)methyl]phenoxy}benzylidene)-1,3-thiazolidine-2,4-dione], the “% Reduction Cholesterol” value [4] is reported as “NR”, the “% Reduction Glucose” value [4] is reported as “NR” and the inhibition in vivo at 50 mg/kg [4, 7] is reported as 3.8%.

Work on CN1C(=O)OCC1Cc1ccc(Oc2ccc(/C=C3\C(=O)Nc4ccccc43)cc2)cc1 (stereo not shown) [Example 4] yielded an inhibition at 1 µM [1, 8] of 1.55%, an inhibition at 10 µM ([1]; Homo sapiens, PBMC, 10 μM, read-out: % Inhibition IL1beta) of 10.7% and an inhibition at 1 µM ([3]; 1 μM) of 8.77%. It also gave an inhibition at 10 µM ([3]; 10 μM) of 2.85%.

For CCN1C(=O)OCC1Cc1ccc(Oc2ccc(/C=C3\C(=O)Nc4ccccc43)cc2)cc1 (stereo not shown) [Example 5], the inhibition at 1 µM ([3]; 1 μM) was 1.72% and the inhibition at 10 µM ([3]; 10 μM) was 9.77%.

For CN1C(=O)OCC1Cc1ccc(Oc2ccc(/C=C3/C(=O)Nc4ccccc43)cc2F)cc1 (stereo not shown) [Example 7], the inhibition at 1 µM [5] was 3.55%, the inhibition at 10 µM [5] was 7.75% and the inhibition at 1 µM ([3]; 1 μM) was 0.93%. For the same compound, the inhibition at 10 µM ([3]; 10 μM) was 6.43%.

Work on CCN1C(=O)OCC1Cc1ccc(Oc2ccc(/C=C3\C(=O)Nc4ccccc43)cc2Cl)cc1 (stereo not shown) [Example 10] yielded an inhibition at 1 µM [6] of 15.5%, an inhibition at 10 µM [6] of 7.18% and an inhibition at 1 µM ([3]; 1 μM) of 20.2%. For the same compound, the inhibition at 10 µM ([3]; 10 μM) was 35%.

CCN1C(=O)OCC1Cc1ccc(Oc2ccc(/C=C3\C(=O)Nc4ccccc43)cc2F)cc1 (stereo not shown) [Example 12] gave an inhibition at 1 µM [6] of 2.67%, an inhibition at 10 µM [6] of 1.65% and an inhibition at 1 µM ([3]; 1 μM) of 13.6%. For the same compound, the inhibition at 10 µM ([3]; 10 μM) was 28.1%.

Compound CCN1C(=O)OCC1Cc1ccc(Oc2ccc(/C=C3\C(=O)Nc4ccccc43)cc2C(F)(F)F)cc1 (stereo not shown) [Example 15] has an inhibition at 1 µM [5] of 7.07%, an inhibition at 10 µM [5] of 9.86% and an inhibition at 1 µM [1, 8] of 1.78%. It also gave an inhibition at 1 µM [6] of 1.16%, an inhibition at 1 µM ([3]; 1 μM) of 24.5% and an inhibition at 10 µM ([3]; 10 μM) of 15.9%.

CN1C(=O)OCC1Cc1ccc(Oc2ccc(/C=C3\C(=O)Nc4ccccc43)c(Cl)c2)cc1 (stereo not shown) [Example 16] gave an inhibition at 1 µM ([3]; 1 μM) of 6.6%.

O=C1NC(Cc2ccc(Oc3ccc(/C=C4/SC(=O)NC4=O)cc3F)cc2)CO1 (stereo not shown) [Example 31, 5-(3-fluoro-4-{4-[(2-oxo-1,3-oxazolidin-4-yl)methyl]phenoxy}benzylidene)-1,3-thiazolidine-2,4-dione] gave an inhibition at 1 µM [5] of 4.77% and an inhibition at 10 µM [5] of 7.25%.

With CN1CC(Cc2ccc(Oc3ccc(/C=C4/SC(=S)N(CC(=O)O)C4=O)cc3)cc2)OC1=O (stereo not shown) [Example 32, 3-methyl-5-(4-{4-[(E)-(3-aceticacid-4-oxo-2-thioxo-1,3-thiazolidin-5-ylidene)methyl]phenoxy}benzyl)-1,3-oxazolidin-2-one] the “Stimulation Index” value [2] was 0.89.

In the case of CN1C(=O)OCC1Cc1ccc(Oc2ccc(/C=C3/SC(=S)NC3=O)cc2)cc1 (stereo not shown) [Example 34, 3-methyl-4-(4-{4-[(4-oxo-2-thioxo-1,3-thiazolidin-5-ylidene)methyl]phenoxy}benzyl)-1,3-oxazolidin-2-one], the inhibition at 1 µM [5] is reported as 9.52%, the inhibition at 10 µM [5] is reported as -0.7% and the “% Reduction Cholesterol” value [4] is reported as “NR”. The inhibition in vivo at 50 mg/kg ([4]; read-out: % Reduction Glucose) was 50.9% and the inhibition in vivo at 50 mg/kg [4, 7] was 73.4%.

With CCN1C(=O)OCC1Cc1ccc(Oc2ccc(/C=C3/SC(=S)N(CC(=O)O)C3=O)cc2)cc1 (stereo not shown) [Example 37] the “% Reduction Cholesterol” value [4] was “NR”, the “% Reduction Triglycerides” value [4] was “NR” and the inhibition in vivo at 50 mg/kg ([4]; read-out: % Reduction Glucose) was 22.5%.
